Where two headings read alike, the source gives them in different places.
Experiments:
rabbit RBCs [1] = test: Streptolysin O-induced hemolysis on RBC agar plates; assay type: cell-based; settings: GML 10 μg/ml in agar, Group A Streptococci stabbed into agar
Experimental: GML (10 μg/ml) was incorporated into culture plates containing solid agar and rabbit RBCs suspended in the agar. The effect of GML on streptolysin O-induced hemolysis was tested by stabbing the Group A Streptococci into the agar so as to permit the anaerobic growth of the bacteria beneath the surface of the agar and thereby allow streptolysin O to function.

HIV-1 = assay type: cell-based
HVECs = assay type: cell-based, human
rabbit RBCs [2] = test: Streptolysin S-induced hemolysis on RBC agar plates; assay type: cell-based; settings: rabbit blood agar plates containing GML, surface culture of Group A Streptococci
Experimental: The effect of GML on streptolysin S-induced hemolysis was assayed by direct culturing of Streptococci on the surface of the RBC-containing agar plates.

[3] = GML 20 μg/ml + SPEA 100 μg/ml, 6 hours
[4] = GML 20 μg/ml + TSST-1 100 μg/ml, 6 hours

Compound | Cell viability (human PBMC) | Total number of cells versus control sample without GML (human PBMC) | Streptolysin O-induced hemolysis of RBCs (rabbit RBCs [1]) | Cells expressing HIV-1 p24 (HIV-1) | IL-8 (pg/ml ± SE) (HVECs) | MIP-3α (pg/ml ± SE) (HVECs) | IL-8 (pg/ml ± SE) (HVECs; [3]) | MIP-3α (pg/ml ± SE) (HVECs; [3]) | IL-8 (pg/ml ± SE) (HVECs; [4]) | MIP-3α (pg/ml ± SE) (HVECs; [4]) | Streptolysin S-induced hemolysis (rabbit RBCs [2])
CCCCCCCCCCCC(=O)OCC(O)CO (stereo not shown) [GML, glycerol monolaurate] | preserved | significantly less | completely prevented hemolysis | rare and no cells expressing p24 | None Detected | None Detected | None Detected | None Detected | None Detected | None Detected | completely inhibited
Ovalbumin [reference compound] |  |  |  |  | 36 ± 1.5 pg/mL | 12 ± 1.8 pg/mL |  |  |  |  | 

Reference: patent publication US20050215634A1 (priority 2003, published 2005)
